Laboratory results taken from patent publication US20220273806A1, “USE OF FLUORINE-CONTAINING COMPOUND-MODIFIED CATIONIC POLYMER AS DRUG CARRIER AND PREPARATION METHOD” (SOOCHOW UNIVERSITY, priority 2020, published 2022).
Read-outs that look alike come from different tables or passages of the source.

Tests used:
mouse eye = settings: in vivo
Procedure: In order to evaluate the penetrating ability for the cornea, the cornea was subjected to immunofluorescence staining at different time points to observe the penetrating ability. Samples were taken 5 min, 15 min, 30 min, and 60 min after the drug with perfluoroheptanoic acid-modified chitosan was applied. Frozen sections were prepared, and the nuclei of the sections were stained and observed under a confocal microscope as shown in FIG. 4-7. Herein, the red is the fluorescence of the protein label, and the blue is the nucleus of the eye tissue.

abdomen skin of mice = settings: 1 mg/mL, first three hours
Procedure: In vitro diffusion cell construction: the abdomen skin of mice was removed, the fat layer was shaved off, and the skin was fixed on a diffusion cell. 7.5 mL PBS was added to the diffusion cell below the skin, and 0.75 mL perfluoroheptanoic acid-modified chitosan-tranexamic acid and the same concentration of pure tranexamic acid solution were respectively added to the diffusion cell above the skin.
Measurement of tranexamic acid penetration rate: 500 μL of PBS was removed from the bottom of the diffusion cell at 0, 1, and 3 h and the same volume of PBS was supplemented. The content of tranexamic acid was detected under the following HPLC conditions: methanol and 0.05 mol/L KH2PO4-0. 2% H3PO4 solution (volume ratio 5:95) as mobile phase, flow rate 1.0 mL/min, and detection wavelength 210 nm, and the cumulative penetration was calculated.

C57BL/6 mice = settings: mouse, in vivo
Procedure: Experimental designers used adriamycin, epirubicin (THP) and fluorescent dye rhodamine B as a bladder perfusion drug respectively to mix with chitosan (1% acetic acid aqueous solution) to prepare chitosan bladder perfusion drug systems. After 1 h of bladder perfusion, the bladder tissue was removed, frozen sections were prepared, the fluorescence intensity of the drug was analyzed with a confocal fluorescence microscope, and the distribution of the drug in the bladder tissue was investigated. […] In order to further investigate the biological safety of chitosan as a drug carrier for perfusion, the designers of the project perfused the mouse bladder with a 15 mg/ml chitosan aqueous solution, stopped the perfusion after 1 h, continued to raise the mice under normal feeding conditions, and recorded the mice weight. […] After dissection, the bladder of the mice in the experimental group was compared with that of the mice in the control group.
Healthy C57BL/6 mice aged 10-12 weeks were divided into three groups, 8 mice/each group. The experimental group was perfused with 15 mg/ml fluorinated chitosan or 1% chitosan in aqueous acetic acid solution for 1 h, once a week for three weeks, and the blank control group was perfused with equal volume of double distilled water. […]

From the text for Balb/c mice: Balb/c mice at week 6 in the hair prohibition period were selected, and on the day before treatment, the mice in the perfluoroheptanoic acid-modified chitosan-metformin group, free metformin group, and blank control group were removed of the equivalent hair on the back and photographed as shown in the figure. Each mouse was uniformly sprayed with the drug according to its own treatment method, and the drug was given once every two days, 100 microliters each time.

## free protein: bovine serum albumin labeled Cy5.5 without fluorine-containing chitosan
Mouse eye
  penetration into the corneal epithelial cells: substantially does not enter

## NC[C@H]1CC[C@H](C(=O)O)CC1 [pure tranexamic acid, tranexamic acid]
Abdomen skin of mice
  cumulative penetration of tranexamic acid: substantially does not penetrate

## CN(C)C(=N)N=C(N)N [Metformin, metformin]
Balb/c mice; Day 0
  hair growth on the back: No hair
Balb/c mice; Day 11
  hair growth on the back: No hair
Balb/c mice; Day 13
  hair growth on the back: No hair
Balb/c mice; Day 17
  hair growth on the back: No hair

## chitosan
C57BL/6 mice
  bladder HE staining and CD45 and Ki67 immunofluorescence: severe inflammatory stress and congestion and edema
  bladder HE staining and CD45 and Ki67 immunofluorescence, mucosal and epithelial damage: severe inflammatory stress and congestion and edema
